Patent publication EP4603105A1, “PHARMACEUTICAL COMPOSITION CONTAINING CYCLIC COMPOUND HAVING SELECTIVE KRAS INHIBITORY EFFECT AGAINST HRAS AND NRAS” (CHUGAI SEIYAKU KABUSHIKI KAISHA, priority 2022, dated 2024)

What was measured:
[1] = biological target: GDP-bound KRAS wild-type protein (Homo sapiens, UniProt P01116); assay: Binding to KRAS by surface plasmon resonance (SPR), dissociation constant KD; details: 1:1 binding model
Procedure, shortened: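 GDP-loaded biotinylated Avi-tag RAS proteins (E. coli-expressed) captured on a Biotin CAPture chip at ~100–300 RU; single-cycle kinetics at 30°C, 100 µL/min, 75 s injections of rising compound concentrations. HBS pH 7.4 running buffer with 1 mM DTT, 10 mM MgCl2, 10 µM GDP, 4% DMSO. KD from 1:1 binding fit.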

[2] = system: human lung cancer strain NCI-H441; assay: NCI-H441 cell proliferation inhibitory activity (CellTiter-Glo, 4 days); format: cell-based; details: NCI-H441 cells, 4 days, read-out: NCl-H441 IC50
Procedure, shortened: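 Proliferation was scored by […] measured after the reagent was added to cultures kept at 37°C in 5% carbon dioxide.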

HRAS wild-type protein = HRAS wild-type protein (Homo sapiens, UniProt P01112); assay: Binding to HRAS by surface plasmon resonance (SPR), KD and KD ratio to KRAS; details: ratio of KD for HRAS wild-type protein to KD for KRAS
Procedure, shortened: (§1)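 SPR, 30°C: Avi-biotin RAS·GDP captured via Biotin CAPture (~100–300 RU); running buffer HBS pH 7.4, 1 mM DTT, 10 mM MgCl2, 0.01% Tween 20, 10 µM GDP, 4% DMSO. Single-cycle kinetics, 100 µL/min, 75 s injections; 1:1 model → KD.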

[3] = biological target: GDP-bound NRAS wild-type protein (Homo sapiens, UniProt P01111); assay: Binding to NRAS by surface plasmon resonance (SPR), KD and KD ratio to KRAS; details: ratio of KD for GDP-bound NRAS wild-type protein to KD for KRAS
Procedure, shortened: as §1

GDP-bound KRAS wild-type protein, sequence (P01116 1-188 isoform P01116-2): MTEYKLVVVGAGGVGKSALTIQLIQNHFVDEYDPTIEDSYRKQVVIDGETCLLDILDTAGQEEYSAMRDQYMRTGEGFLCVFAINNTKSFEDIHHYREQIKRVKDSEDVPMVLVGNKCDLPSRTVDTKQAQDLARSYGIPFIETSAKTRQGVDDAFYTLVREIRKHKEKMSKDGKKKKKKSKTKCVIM
GDP-bound NRAS wild-type protein, sequence (P01111 whole entry): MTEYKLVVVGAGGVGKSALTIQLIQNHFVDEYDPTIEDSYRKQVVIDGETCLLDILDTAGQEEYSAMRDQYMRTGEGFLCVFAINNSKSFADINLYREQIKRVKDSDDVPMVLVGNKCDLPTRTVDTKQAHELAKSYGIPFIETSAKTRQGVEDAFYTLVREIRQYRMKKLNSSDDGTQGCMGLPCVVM
HRAS wild-type protein, sequence (P01112 whole entry): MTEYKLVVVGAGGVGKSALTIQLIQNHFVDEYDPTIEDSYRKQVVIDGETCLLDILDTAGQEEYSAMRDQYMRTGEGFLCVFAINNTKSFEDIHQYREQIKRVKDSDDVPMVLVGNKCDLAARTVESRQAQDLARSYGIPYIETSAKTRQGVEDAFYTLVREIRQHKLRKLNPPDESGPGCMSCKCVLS

Row | Compound | Kd [1] [nM] | IC50 [2] [nM] | HRAS /KRAS (HRAS wild-type protein) | NRAS /KRAS [3]
1 | CCCOC[C@H]1C(=O)N[C@@H]([C@@H](C)CC)C(=O)N(C)CC(=O)N(C)[C@H]2C/C=C\CCN(C2=O)[C@@H](Cc2ccc(C)cc2)C(=O)N(C)CC(=O)N[C@@H](CCc2ccc(C(F)(F)F)c(OC)c2)C(=O)N2C[C@H](OCC)C[C@H]2C(=O)NC2(CC(C)(C)C2)C(=O)N(C)[C@@H](C2CCCC2)C(=O)N(C)[C@H](C(=O)N(C)C)CC(=O)N1C [PP2449] | 0.061 | 7.8 | A (a compound having 10 or more and less than 20 is denoted as A) | A (a compound having 10 or more and less than 20 is denoted as A)
2 | CCOC[C@H]1C(=O)N[C@@H]([C@@H](C)CC)C(=O)N(C)CC(=O)N(C)[C@H]2C/C=C\CCN(C2=O)[C@@H](CC2CCC(F)(F)CC2)C(=O)N(C)CC(=O)N[C@@H](CCc2cc(F)c(C(F)(F)F)c(F)c2)C(=O)N2C[C@H](OCC)C[C@H]2C(=O)NC2(CC(C)(C)C2)C(=O)N(C)[C@@H](C(CC)CC)C(=O)N(C)[C@H](C(=O)N(C)C)CC(=O)N1C [PP2450] | 0.55 | 29.2 | A (a compound having 10 or more and less than 20 is denoted as A) | A (a compound having 10 or more and less than 20 is denoted as A)
3 | CCOC[C@H]1C(=O)N[C@@H]([C@@H](C)CC)C(=O)N(C)CC(=O)N(C)[C@H]2C/C=C\CCN(C2=O)[C@@H](Cc2ccc(C)cc2)C(=O)N(C)CC(=O)N[C@@H](CCc2ccc(C(F)(F)F)c(Cl)c2)C(=O)N2C[C@@H](C)C[C@H]2C(=O)NC2(CC(C)(C)C2)C(=O)N(C)[C@@H](C2CCCC2)C(=O)N(C)[C@H](C(=O)N(C)CC)CC(=O)N1C [PP2451] | 0.17 | 8.6 | A (a compound having 10 or more and less than 20 is denoted as A) | A (a compound having 10 or more and less than 20 is denoted as A)
4 | CCCOC[C@H]1C(=O)N[C@@H]([C@@H](C)CC)C(=O)N(C)CC(=O)N(C)[C@H]2C/C=C\CCN(C2=O)[C@@H](Cc2ccc(C)cc2)C(=O)N(C)CC(=O)N[C@@H](CCc2ccc(C(F)(F)F)c(Cl)c2)C(=O)N2C[C@@H](C)C[C@H]2C(=O)NC2(CC(C)(C)C2)C(=O)N(C)[C@@H](C2CCCC2)C(=O)N(C)[C@H](C(=O)N(C)C)CC(=O)N1C [PP2453] | 0.09 | 9.2 | A (a compound having 10 or more and less than 20 is denoted as A) | A (a compound having 10 or more and less than 20 is denoted as A)
5 | CCC(CC)[C@H]1C(=O)N(C)[C@H](C(=O)N(C)C)CC(=O)N(C)[C@@H](COC)C(=O)N[C@@H]([C@@H](C)CC)C(=O)N(C)CC(=O)N(C)[C@H]2C/C=C\CCN(C2=O)[C@@H](CC2CCC(F)(F)CC2)C(=O)N(C)CC(=O)N[C@@H](CCc2ccc(C(F)(F)F)c(Cl)c2)C(=O)N2C[C@@H](C)C[C@H]2C(=O)NC2(CC(C)(C)C2)C(=O)N1C [PP2454] | 1.2 | 80.2 | A (a compound having 10 or more and less than 20 is denoted as A) | AA (a compound having 20 or more is denoted as AA)
6 | CCOC[C@H]1C(=O)N[C@@H]([C@@H](C)CC)C(=O)N(C)CC(=O)N(C)[C@H]2C/C=C\CCN(C2=O)[C@@H](CC2CCC(F)(F)CC2)C(=O)N(C)CC(=O)N[C@@H](CCc2ccc(C(F)(F)F)c(OC)c2)C(=O)N2C[C@@H](C)C[C@H]2C(=O)NC2(CC(C)(C)C2)C(=O)N(C)[C@@H](C(CC)CC)C(=O)N(C)[C@H](C(=O)N(C)C)CC(=O)N1C [PP2458] | 1.3 | 80.7 | A (a compound having 10 or more and less than 20 is denoted as A) | A (a compound having 10 or more and less than 20 is denoted as A)
7 | CCOC[C@H]1C(=O)N[C@@H]([C@@H](C)CC)C(=O)N(C)CC(=O)N(C)[C@H]2C/C=C\CCN(C2=O)[C@@H](CC2CCC(F)(F)CC2)C(=O)N(C)CC(=O)N[C@@H](CCc2ccc(C(F)(F)F)c(Cl)c2)C(=O)N2C[C@H](OCC)C[C@H]2C(=O)NC2(CC(C)(C)C2)C(=O)N(C)[C@@H](C(CC)CC)C(=O)N(C)[C@H](C(=O)N(C)C)CC(=O)N1C [PP2460] | 0.71 | 18.7 | A (a compound having 10 or more and less than 20 is denoted as A) | A (a compound having 10 or more and less than 20 is denoted as A)
8 | CCCOC[C@H]1C(=O)N[C@@H]([C@@H](C)CC)C(=O)N(C)CC(=O)N(C)[C@H]2C/C=C\CCN(C2=O)[C@@H](Cc2ccc(C)cc2)C(=O)N(C)CC(=O)N[C@@H](CCc2ccc(C(F)(F)F)c(OC)c2)C(=O)N2C[C@@H](C)C[C@H]2C(=O)NC2(CC(C)(C)C2)C(=O)N(C)[C@@H](C2CCCC2)C(=O)N(C)[C@H](C(=O)N(C)CC)CC(=O)N1C [PP2461] | 0.15 | 10.6 | A (a compound having 10 or more and less than 20 is denoted as A) | A (a compound having 10 or more and less than 20 is denoted as A)
9 | CCOC[C@H]1C(=O)N[C@@H]([C@@H](C)CC)C(=O)N(C)CC(=O)N(C)[C@H]2C/C=C\CCN(C2=O)[C@@H](CC2CCC(F)(F)CC2)C(=O)N(C)CC(=O)N[C@@H](CCc2cc(F)c(C(F)(F)F)c(F)c2)C(=O)N2C[C@@H](C)C[C@H]2C(=O)NC2(CC(C)(C)C2)C(=O)N(C)[C@@H](C(CC)CC)C(=O)N(C)[C@H](C(=O)N(C)C)CC(=O)N1C [PP2462] | 1.6 | 87.2 | A (a compound having 10 or more and less than 20 is denoted as A) | A (a compound having 10 or more and less than 20 is denoted as A)
10 | CCCOC[C@H]1C(=O)N[C@@H]([C@@H](C)CC)C(=O)N(C)CC(=O)N(C)[C@H]2C/C=C\CCN(C2=O)[C@@H](CC2CCC(F)(F)CC2)C(=O)N(C)CC(=O)N[C@@H](CCc2ccc(C(F)(F)F)c(OC)c2)C(=O)N2C[C@H](OCC)C[C@H]2C(=O)NC2(CC(C)(C)C2)C(=O)N(C)[C@@H](C(CC)CC)C(=O)N(C)[C@H](C(=O)N(C)C)CC(=O)N1C [PP2464] | 0.98 | 66 | A (a compound having 10 or more and less than 20 is denoted as A) | A (a compound having 10 or more and less than 20 is denoted as A)
11 | CCOC[C@H]1C(=O)N[C@@H]([C@@H](C)CC)C(=O)N(C)CC(=O)N(C)[C@H]2C/C=C\CCN(C2=O)[C@@H](Cc2ccc(C)cc2)C(=O)N(C)CC(=O)N[C@@H](CCc2ccc(C(F)(F)F)c(Cl)c2)C(=O)N2C[C@@H](C)C[C@H]2C(=O)NC2(CC(C)(C)C2)C(=O)N(C)[C@@H](C2CCCC2)C(=O)N(C)[C@H](C(=O)N(CC)CC)CC(=O)N1C [PP2465] | 0.51 | 39.4 | A (a compound having 10 or more and less than 20 is denoted as A) | AA (a compound having 20 or more is denoted as AA)
12 | CCC(CC)[C@H]1C(=O)N(C)[C@H](C(=O)N(C)C)CC(=O)N(C)[C@@H](COC)C(=O)N[C@@H]([C@@H](C)CC)C(=O)N(C)CC(=O)N(C)[C@H]2C/C=C\CCN(C2=O)[C@@H](CC2CCCCC2)C(=O)N(C)CC(=O)N[C@@H](CCc2ccc(C(F)(F)F)c(OC)c2)C(=O)N2C[C@@H](C)C[C@H]2C(=O)NC2(CC(C)(C)C2)C(=O)N1C [PP2466] | 3.9 | 170 | A (a compound having 10 or more and less than 20 is denoted as A) | A (a compound having 10 or more and less than 20 is denoted as A)
13 | CCCOC[C@H]1C(=O)N[C@@H]([C@@H](C)CC)C(=O)N(C)CC(=O)N(C)[C@H]2C/C=C\CCN(C2=O)[C@@H](Cc2ccc(C)cc2)C(=O)N(C)CC(=O)N[C@@H](CCc2ccc(C(F)(F)F)c(Cl)c2)C(=O)N2C[C@@H](C)C[C@H]2C(=O)NC2(CC(C)(C)C2)C(=O)N(C)[C@@H](C2CCCC2)C(=O)N(C)[C@H](C(=O)N(C)CC)CC(=O)N1C [PP2467] | 0.26 | 21.8 | B (a compound having 3 or more and less than 10 is denoted as B) | A (a compound having 10 or more and less than 20 is denoted as A)
14 | CCO[C@@H]1C[C@H]2C(=O)NC3(CC(C)(C)C3)C(=O)N(C)[C@@H](C(CC)CC)C(=O)N(C)[C@H](C(=O)N(C)C)CC(=O)N(C)[C@@H](COC)C(=O)N[C@@H]([C@@H](C)CC)C(=O)N(C)CC(=O)N(C)[C@H]3C/C=C\CCN(C3=O)[C@@H](CC3CCCCC3)C(=O)N(C)CC(=O)N[C@@H](CCc3ccc(C(F)(F)F)c(Cl)c3)C(=O)N2C1 [PP2468] | 1.3 | 72.2 | A (a compound having 10 or more and less than 20 is denoted as A) | AA (a compound having 20 or more is denoted as AA)
15 | CCOC[C@H]1C(=O)N[C@@H]([C@@H](C)CC)C(=O)N(C)CC(=O)N(C)[C@H]2C/C=C\CCN(C2=O)[C@@H](CC2CCCCC2)C(=O)N(C)CC(=O)N[C@@H](CCc2ccc(C(F)(F)F)c(OC)c2)C(=O)N2C[C@H](OCC)C[C@H]2C(=O)NC2(CC(C)(C)C2)C(=O)N(C)[C@@H](C(CC)CC)C(=O)N(C)[C@H](C(=O)N(C)C)CC(=O)N1C [PP2470] | 1.8 | 118 | A (a compound having 10 or more and less than 20 is denoted as A) | A (a compound having 10 or more and less than 20 is denoted as A)
16 | CCCOC[C@H]1C(=O)N[C@@H]([C@@H](C)CC)C(=O)N(C)CC(=O)N(C)[C@H]2C/C=C\CCN(C2=O)[C@@H](Cc2ccc(C)cc2)C(=O)N(C)CC(=O)N[C@@H](CCc2cc(F)c(C(F)(F)F)c(F)c2)C(=O)N2C[C@@H](C)C[C@H]2C(=O)NC2(CC(C)(C)C2)C(=O)N(C)[C@@H](C2CCCC2)C(=O)N(C)[C@H](C(=O)N(C)CC)CC(=O)N1C [PP2471] | 0.16 | 15.3 | A (a compound having 10 or more and less than 20 is denoted as A) | A (a compound having 10 or more and less than 20 is denoted as A)
